Data: patent US20210330611A1, “THERAPY FOR NEUROLOGICAL DISEASES/DISORDERS” (priority 2020, published 2021)
Counter-ions that a name gives are not always drawn. Like-named read-outs stand apart in the source and are kept apart here.

Tests used:
[1] = tested on: fibrin-induced microglia activation; assay: Image-based assay of fibrin-induced microglia activation (HTS and dose response); assay type: cell-based, rat; details: for inhibition at 10 µM: Rattus norvegicus, Microglia, read-out: Fibrin % inhibition
[2] = tested on: LPS-induced microglia activation; assay: Image-based assay of LPS-induced microglia activation (HTS and dose response); assay type: cell-based, rat; details: for inhibition at 10 µM: Rattus norvegicus, Microglia, read-out: LPS % inhibition
[3] = tested on: fibrin- and LPS-induced microglia activation; assay: cells; assay type: cell-based, rat
primary rat microglia [4] = assay: Cell toxicity (dead cells, size <150 μm2) in LPS assay
primary rat microglia [5] = assay: Cell toxicity (dead cells, size <150 μm2) in coated fibrin (cFib) assay;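 further: share of dead cells sized under 150 µm2 at 10 µM in fibrin-stimulated microglia HTS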
[6] = primary HTS, 10 μM, fibrin-stimulated primary microglia
[7] = primary HTS, 10 μM, LPS-stimulated primary microglia
[8] = primary HTS, 10 μM, LPS assay, dead cells size <150 μm2
[9] = primary HTS, 10 μM, fibrin assay, dead cells size <150 μm2
[10] = primary microglia HTS, 10 μM, fibrin-stimulated, cell size >800 μm^2 as marker of activation
[11] = primary microglia HTS, 10 μM, LPS-stimulated, cell size >800 μm^2 as marker of activation
[12] = HTS of 1907 compounds, quadrant by fibrin and LPS inhibition
[13] = primary microglia HTS, 10 μM, LPS assay, cell size <150 μm^2 as marker of toxicity
[14] = primary microglia HTS, 10 μM, fibrin assay, cell size <150 μm^2 as marker of toxicity
[15] = primary microglia HTS, fibrin stimulation, activation = cell size >800 μm2
[16] = primary microglia HTS, LPS stimulation, activation = cell size >800 μm2
[17] = quadrant by fibrin and LPS inhibition in HTS of 1907 compounds
[18] = primary microglia HTS, LPS stimulation, toxicity = cell size <150 μm2
[19] = primary microglia HTS, fibrin stimulation, toxicity = cell size <150 μm2
[20] = 48 h, primary microglia HTS, LPS stimulation, activation = cell size >800 μm2
[21] = primary microglia HTS, fibrin stimulation, increased cell size (>800 μm^2) as marker of activation
[22] = primary microglia HTS, LPS stimulation, decreased size (<150 μm^2) as marker of toxicity
[23] = primary microglia HTS, fibrin stimulation, decreased size (<150 μm^2) as marker of toxicity

With `COc1cc(CNC(=O)CCCC/C=C/C(C)C)ccc1O` [Capsaicin] the inhibition at 10 µM [1, 6] was -45%, the inhibition at 10 µM [2, 7] was 9% and the “Quadrant (FIG. 5b)” value ([3]; primary HTS, 10 μM) was “Q4”. The “LPS % cell toxicity” value (primary rat microglia [4]; [8]) was 0% and the “Fibrin % cell toxicity” value (primary rat microglia [5]; [9]) was 1%.
For `CC(=O)Nc1ccc(S(=O)(=O)Nc2ccc([N+](=O)[O-])cc2)cc1` [Sulfanitran], the inhibition at 10 µM [1, 10] was 10%, the inhibition at 10 µM [2, 11] was 18% and the “Quadrant (FIG. 5b)” value [3, 12] was “Q4”. For the same molecule, the “LPS % cell toxicity” value (primary rat microglia [4]; [13]) was 0% and the “Fibrin % cell toxicity” value (primary rat microglia [5]; [14]) was 1%.
`CC[C@]12CCCN3CCc4c(n(c5ccccc45)[C@@](O)(C(=O)OC)C1)[C@@H]32` [Vincamine] was tested, and the inhibition at 10 µM [1, 10] was 1%, the inhibition at 10 µM [2, 11] was 20% and the “Quadrant (FIG. 5b)” value [3, 12] was “Q4”. For the same molecule, the “LPS % cell toxicity” value (primary rat microglia [4]; [13]) was 0% and the “Fibrin % cell toxicity” value (primary rat microglia [5]; [14]) was 0%.
With `CN(C/C=C/C#CC(C)(C)C)Cc1cccc2ccccc12` [Terbinafine, Terbinafine Hydrochloride] the Fibrin % inhibition [1, 10] was −23%, the LPS % inhibition [2, 11] was 6% and the “Quadrant (FIG. 5b)” value [3, 12] was “Q4”. For the same molecule, the “LPS % cell toxicity” value (primary rat microglia [4]; [13]) was 0% and the “Fibrin % cell toxicity” value (primary rat microglia [5]; [14]) was 0%.
For `C[C@@H]1O[C@@H]1P(=O)(O)O` [Fosphomycin], the Fibrin % inhibition [1, 15] was 4%, the LPS % inhibition [2, 16] was 12% and the “Quadrant (FIG. 5b)” value [3, 17] was “Q4”. The “LPS % cell toxicity” value (primary rat microglia [4]; [18]) was 0% and the “Fibrin % cell toxicity” value (primary rat microglia [5]; [19]) was 1%.
`Cc1ccc2c(Br)cc(Br)c(OC(=O)c3ccccc3)c2n1` [Broxaldine] was tested, and the inhibition at 10 µM [1, 6] was 19%, the inhibition at 10 µM [2, 7] was 6% and the “Quadrant (FIG. 5b)” value ([3]; primary HTS, 10 μM) was “Q4”. The “LPS % cell toxicity” value (primary rat microglia [4]; [8]) was 0% and the “Fibrin % cell toxicity” value (primary rat microglia [5]; [9]) was 1%.
For `C[N+](C)(C)CCOC(N)=O` [Carbachol], the inhibition at 10 µM [1, 6] was -18%, the inhibition at 10 µM [2, 7] was 6% and the “Quadrant (FIG. 5b)” value ([3]; primary HTS, 10 μM) was “Q4”. The “LPS % cell toxicity” value (primary rat microglia [4]; [8]) was 0% and the “Fibrin % cell toxicity” value (primary rat microglia [5]; [9]) was 1%.
For `CC(C(=O)O)c1cccc(Oc2ccccc2)c1` (stereo not drawn) [Fenoprofen], the inhibition at 10 µM [1, 15] was -7%, the inhibition at 10 µM [2, 20] was -4% and the “Quadrant (FIG. 5b)” value [3, 17] was “Q4”. For the same molecule, the “LPS % cell toxicity” value (primary rat microglia [4]; [18]) was 0% and the “Fibrin % cell toxicity” value (primary rat microglia [5]; [19]) was 0%.
With `Oc1ccc(Cl)c2c1CCC2` [Chlorindanol] the inhibition at 10 µM [1, 6] was 23%, the inhibition at 10 µM [2, 7] was 15% and the “Quadrant (FIG. 5b)” value ([3]; primary HTS, 10 μM) was “Q4”. For the same molecule, the “LPS % cell toxicity” value (primary rat microglia [4]; [8]) was 0% and the “Fibrin % cell toxicity” value (primary rat microglia [5]; [9]) was 1%.
In the case of `O=C1c2ccccc2C(=O)C1c1ccc(Cl)cc1` [Chlorindione], the Fibrin % inhibition [1, 6] is reported as −7%, the LPS % inhibition [2, 7] is reported as 10% and the “Quadrant (FIG. 5b)” value ([3]; primary HTS, 10 μM) is reported as “Q4”. The “LPS % cell toxicity” value (primary rat microglia [4]; [8]) was 0% and the “Fibrin % cell toxicity” value (primary rat microglia [5]; [9]) was 1%.
`CO[C@@]1(NC(=O)C2SC(=C(C(N)=O)C(=O)O)S2)C(=O)N2C(C(=O)O)=C(CSc3nnnn3C)CS[C@@H]21` (stereo partly drawn) [Cefotetan] was tested, and the inhibition at 10 µM [1, 6] was -11%, the inhibition at 10 µM [2, 7] was -5% and the “Quadrant (FIG. 5b)” value ([3]; primary HTS, 10 μM) was “Q4”. For the same molecule, the “LPS % cell toxicity” value (primary rat microglia [4]; [8]) was 0% and the “Fibrin % cell toxicity” value (primary rat microglia [5]; [9]) was 0%.
`FC(F)(F)COCC(F)(F)F` [Flurothyl] was tested, and the Fibrin % inhibition [1, 15] was 0%, the LPS % inhibition [2, 16] was 28% and the “Quadrant (FIG. 5b)” value [3, 17] was “Q4”. For the same molecule, the “LPS % cell toxicity” value (primary rat microglia [4]; [18]) was 0% and the “Fibrin % cell toxicity” value (primary rat microglia [5]; [19]) was 1%.
`NC(=O)N1c2ccccc2CC(=O)c2ccccc21` [Oxcarbazepine, Trileptal] was tested, and the Fibrin % inhibition [1, 21] was 3%, the LPS % inhibition ([2]; primary microglia HTS, LPS stimulation, increased cell size (>800 μm^2) as marker of activation) was 35% and the “Quadrant (FIG. 5b)” value [3, 17] was “Q4”. The “LPS % cell toxicity” value (primary rat microglia [4]; [22]) was 0% and the “Fibrin % cell toxicity” value (primary rat microglia [5]; [23]) was 1%.
With `NC(=O)c1ccc[n+]([C@@H]2O[C@H](COP(=O)([O-])OP(=O)(O)OC[C@H]3O[C@@H](n4cnc5c(N)ncnc54)[C@H](O)[C@@H]3O)[C@@H](O)[C@H]2O)c1` [Nadide] the inhibition at 10 µM [1, 21] was -14%, the inhibition at 10 µM ([2]; 48 h, primary microglia HTS, LPS stimulation, increased cell size (>800 μm^2) as marker of activation) was 5% and the “Quadrant (FIG. 5b)” value [3, 17] was “Q4”. The “LPS % cell toxicity” value (primary rat microglia [4]; [22]) was 0% and the “Fibrin % cell toxicity” value (primary rat microglia [5]; [23]) was 1%.
`C[N+](C)(C)C[C@H](O)CC(=O)[O-]` [Levocarnitine] was tested, and the inhibition at 10 µM [1, 15] was 8%, the inhibition at 10 µM [2, 20] was 15% and the “Quadrant (FIG. 5b)” value [3, 17] was “Q4”. For the same molecule, the “LPS % cell toxicity” value (primary rat microglia [4]; [18]) was 0% and the “Fibrin % cell toxicity” value (primary rat microglia [5]; [19]) was 1%.
